# Laboratory results reported in patent US10207030B2, “Implantable devices for bone or joint defects” (University of Utah Research Foundation, priority 2013, dated 2019).
# Tested on: S. aureus
# Test: MIC of tobramycin (previously determined)
# Assay type: cell-based
# Details: Staphylococcus aureus
smiles,measurement,value
NC[C@H]1O[C@H](O[C@H]2[C@H](O)[C@@H](O[C@H]3O[C@H](CO)[C@@H](O)[C@H](N)[C@H]3O)[C@H](N)C[C@@H]2N)[C@H](N)C[C@@H]1O [tobramycin],MIC,4 mg/L
